# Patent US6770133B2, “Stable crystal of thiazolidinedione derivative and process for producing the same” (Kyorin Pharmaceutical Co., Ltd., priority 2000, dated 2004)
# Experiments:
# [1] = M. Nomura et al, Bioorg. Med. Chem. Lett., 9 (1999) 533-538; cited from earlier work
# [2] = Thermal analysis (thermal stability of the crystals); type: physicochemical
# Text: Using the thermal analysis apparatus (Rigaku Denki; TAS-200), the thermal stability of the crystals were examined.
# [3] = Hygroscopicity of the crystals; type: physicochemical
# [4] = thermal analysis apparatus Rigaku Denki TAS-200
thermal stability compared with the conventional crystal ([2]; conclusion from thermal analysis),"endothermic peak [2, 4] [°C]","endothermic phenomena observed from (onset) [2, 4] [°C]",hygroscopicity [3],Structure (SMILES),glucose-lowering activity [1]
,,,,"COc1ccc(CC2SC(=O)NC2=O)cc1C(=O)NCc1ccc(C(F)(F)F)cc1 (stereo not drawn) [KRP-297, 5-[(2,4-dioxothiazolidin-5-yl)methyl]-2-methoxy-N-[[4-(trifluoromethyl)phenyl]methyl]benzamide]",very excellent glucose-lowering activity
more thermally stable,196.2,194.8,no hygroscopicity,"COc1ccc(CC2SC(=O)NC2=O)cc1C(=O)NCc1ccc(C(F)(F)F)cc1 (stereo not drawn) [novel crystal, 5-[(2,4-dioxothiazolidin-5-yl)methyl]-2-methoxy-N-[[4-(trifluoromethyl)phenyl]methyl]benzamide]",
,186.3,,,"COc1ccc(CC2SC(=O)NC2=O)cc1C(=O)NCc1ccc(C(F)(F)F)cc1 (stereo not drawn) [conventional crystals, 5-[(2,4-dioxothiazolidin-5-yl)methyl]-2-methoxy-N-[[4-(trifluoromethyl)phenyl]methyl]benzamide, reference compound]",
